pKd: −log10 of the molar value.
Target: PRMT5 (protein arginine methyltransferase 5) (Homo sapiens, UniProt O14744)
Test: SPR with immobilized PRMT5 N-terminal TIM barrel
Assay type: binding

Sequence of PRMT5 (protein arginine methyltransferase 5) (O14744 1-292): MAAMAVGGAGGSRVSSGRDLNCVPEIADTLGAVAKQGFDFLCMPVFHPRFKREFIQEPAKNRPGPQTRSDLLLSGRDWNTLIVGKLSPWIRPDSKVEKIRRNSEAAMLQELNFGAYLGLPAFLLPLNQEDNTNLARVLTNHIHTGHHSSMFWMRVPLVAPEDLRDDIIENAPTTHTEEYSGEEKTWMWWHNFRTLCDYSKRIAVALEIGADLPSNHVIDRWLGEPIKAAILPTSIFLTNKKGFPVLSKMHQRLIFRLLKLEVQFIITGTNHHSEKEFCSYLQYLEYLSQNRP

pKd: 4.67
Structure (SMILES): O=C(Cc1csc(-c2ccc(C(F)(F)F)cc2)n1)Nc1ccc2oc(=O)[nH]c2c1 [Z319334062]
